Laboratory results as given in patent US8802597B2, “Herbicidal pyrimidines” (E I du Pont de Nemours and Company, priority 2003, dated 2014).

Tests used:
Format in all cases: in vivo
[1] = test system: junglerice (Echinochloa colona); assay: Test E flooded paddy water application; conditions: Flood, 21 days, scale 0 to 100 (0 no effect, 100 complete control)
Excerpt: (§1) Three plastic pots (ca. 16-cm diameter) per rate were partially filled with sterilized Tama silt loam soil comprising a 35:50:15 ratio of sand, silt and clay and 2.6% organic matter. Separate plantings for each of the three pots were as follows. Seeds from the U.S. of ducksalad (Heteranthera limosa), smallflower umbrella sedge (Cyperus difformis) and purple redstem (Ammannia coccinea), were planted into one 16-cm pot for each rate. Seeds from the U.S. of rice flatsedge (Cyperus iria), bearded (brdd.) sprangletop (Leptochloa fusca ssp. fascicularis), one stand of 9 or 10 water seeded rice seedlings (Oryza sativa cv. ‘Japonica-M202’), and one stand of 6 transplanted rice seedlings (Oryza sativa cv. ‘Japonica-M202’) were planted into one 16-cm pot for each rate. Seeds from the U.S. of barnyardgrass (Echinochloa crus-galli), late watergrass (Echinochloa oryzicola), early watergrass (Echinochloa oryzoides) and junglerice (Echinochloa colona) were planted into one 16-cm pot for each rate. Plantings were sequential so that crop and weed species were at the 2.0 to 2.5-leaf stage at time of treatment.
(§2) Potted plants were grown in a greenhouse with day/night temperature settings of 29.5/26.7° C., and supplemental balanced lighting was provided to maintain a 16-hour photoperiod. Test pots were maintained in the greenhouse until test completion.
(§3) At time of treatment, test pots were flooded to 3 cm above the soil surface, treated by application of test compounds directly to the paddy water, and then maintained at that water depth for the duration of the test. Effects of treatments on rice and weeds were visually evaluated by comparison to untreated controls after 21 days. Plant response ratings, summarized in Table E, are based on a scale of 0 to 100 where 0 is no effect and 100 is complete control. A dash (-) response means no test result.

[2] = test system: late watergrass (Echinochloa oryzicola); assay: Test E flooded paddy water application; conditions: Flood, 21 days, scale 0 to 100 (0 no effect, 100 complete control)
Excerpt: as §1, §2, §3

[3] = test system: ducksalad (Heteranthera limosa); assay: Test E flooded paddy water application; conditions: Flood, 21 days, scale 0 to 100 (0 no effect, 100 complete control)
Excerpt: as §1, §2, §3

[4] = test system: water seeded rice seedlings (Oryza sativa cv. ‘Japonica-M202’); assay: Test E flooded paddy water application; conditions: Flood, 21 days, scale 0 to 100 (0 no effect, 100 complete control)
Excerpt: as §1, §2, §3

[5] = test system: transplanted rice seedlings (Oryza sativa cv. ‘Japonica-M202’); assay: Test E flooded paddy water application; conditions: Flood, 21 days, scale 0 to 100 (0 no effect, 100 complete control)
Excerpt: as §1, §2, §3

[6] = test system: rice flatsedge (Cyperus iria); assay: Test E flooded paddy water application; conditions: Flood, 21 days, scale 0 to 100 (0 no effect, 100 complete control)
Excerpt: as §1, §2, §3

[7] = test system: early watergrass (Echinochloa oryzoides); assay: Test E flooded paddy water application; conditions: Flood, 21 days, scale 0 to 100 (0 no effect, 100 complete control)
Excerpt: as §1, §2, §3

[8] = test system: barnyardgrass (Echinochloa crus-galli); assay: Test E flooded paddy water application; conditions: Flood, 21 days, scale 0 to 100 (0 no effect, 100 complete control)
Excerpt: as §1, §2, §3

[9] = test system: purple redstem (Ammannia coccinea); assay: Test E flooded paddy water application; conditions: Flood, 21 days, scale 0 to 100 (0 no effect, 100 complete control)
Excerpt: as §1, §2, §3

[10] = test system: bearded (brdd.) sprangletop (Leptochloa fusca ssp. fascicularis); assay: Test E flooded paddy water application; conditions: Flood, 21 days, scale 0 to 100 (0 no effect, 100 complete control)
Excerpt: as §1, §2, §3

[11] = test system: smallflower umbrella sedge (Cyperus difformis); assay: Test E flooded paddy water application; conditions: Flood, 21 days, scale 0 to 100 (0 no effect, 100 complete control)
Excerpt: as §1, §2, §3

[12] = test system: crabgrass (Digitaria sanguinalis); assay: Test A pre/postemergence
In short: (§4)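 Compared with untreated controls, treated plants were visually rated for injury on a 0 (none) to 100 (complete control) scale about ten days after spraying. Pre- and postemergence applications used one solvent/surfactant formulation; postemergence plants measured 2–10 cm.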

[13] = test system: morningglory (Ipomoea spp.); assay: Test A pre/postemergence
In short: as §4

[14] = test system: redroot pigweed (Amaranthus retroflexus); assay: Test A pre/postemergence
In short: as §4

[15] = test system: velvetleaf (Abutilon theophrasti); assay: Test A pre/postemergence
In short: as §4

[16] = test system: barnyardgrass (Echinochloa crus-galli); assay: Test A pre/postemergence
In short: as §4

[17] = test system: giant foxtail (Setaria faberi); assay: Test A pre/postemergence
In short: as §4

[18] = Postemergence, 125 g ai/ha, 0 to 100 scale (0 no effect, 100 complete control)
[19] = Postemergence, 500 g ai/ha, 0 to 100 scale (0 no effect, 100 complete control)
[20] = Preemergence, 125 g ai/ha, 0 to 100 scale where 0 is no effect and 100 is complete control, approximately ten days
[21] = Preemergence, 500 g ai/ha, 0 to 100 scale where 0 is no effect and 100 is complete control, approximately ten days

For `CCOC(=O)c1nc(-c2ccc(Cl)c(Cl)c2)nc(N)c1Br` [Compound 66], the “Junglerice plant response rating” value ([1]; 32 g ai/ha) was 0, the “Junglerice plant response rating” value ([1]; 64 g ai/ha) was 0 and the “Junglerice plant response rating” value ([1]; 125 g ai/ha) was 0. The “Junglerice plant response rating” value ([1]; 250 g ai/ha) was 0, the “Plant response rating, Junglerice” value ([1]; 16 g ai/ha) was 0 and the “Watergrass, Late plant response rating” value ([2]; 32 g ai/ha) was 0. For the same compound, the “Watergrass, Late plant response rating” value ([2]; 64 g ai/ha) was 0, the “Watergrass, Late plant response rating” value ([2]; 125 g ai/ha) was 0 and the “Watergrass, Late plant response rating” value ([2]; 250 g ai/ha) was 0. For the same compound, the “Plant response rating, Watergrass, Late” value ([2]; 16 g ai/ha) was 0, the “Ducksalad plant response rating” value ([3]; 32 g ai/ha) was 100 and the “Ducksalad plant response rating” value ([3]; 64 g ai/ha) was 100. The “Ducksalad plant response rating” value ([3]; 125 g ai/ha) was 100, the “Ducksalad plant response rating” value ([3]; 250 g ai/ha) was 100 and the “Plant response rating, Ducksalad” value ([3]; 16 g ai/ha) was 95. For the same compound, the “Rice, Water Seeded plant response rating” value ([4]; 32 g ai/ha) was 0, the “Rice, Water Seeded plant response rating” value ([4]; 64 g ai/ha) was 0 and the “Rice, Water Seeded plant response rating” value ([4]; 125 g ai/ha) was 0. For the same compound, the “Rice, Water Seeded plant response rating” value ([4]; 250 g ai/ha) was 0, the “Plant response rating, Rice, Water Seeded” value ([4]; 16 g ai/ha) was 0 and the “Rice, Transplanted plant response rating” value ([5]; 32 g ai/ha) was 0. For the same compound, the “Rice, Transplanted plant response rating” value ([5]; 64 g ai/ha) was 0, the “Rice, Transplanted plant response rating” value ([5]; 125 g ai/ha) was 0 and the “Rice, Transplanted plant response rating” value ([5]; 250 g ai/ha) was 0. The “Plant response rating, Rice, Transplanted” value ([5]; 16 g ai/ha) was 0, the “Flatsedge, Rice plant response rating” value ([6]; 32 g ai/ha) was 0 and the “Flatsedge, Rice plant response rating” value ([6]; 64 g ai/ha) was 0. The “Flatsedge, Rice plant response rating” value ([6]; 125 g ai/ha) was 0, the “Flatsedge, Rice plant response rating” value ([6]; 250 g ai/ha) was 0 and the “Plant response rating, Flatsedge, Rice” value ([6]; 16 g ai/ha) was 0. The “Watergrass, Early plant response rating” value ([7]; 32 g ai/ha) was 0, the “Watergrass, Early plant response rating” value ([7]; 64 g ai/ha) was 0 and the “Watergrass, Early plant response rating” value ([7]; 125 g ai/ha) was 0. The “Watergrass, Early plant response rating” value ([7]; 250 g ai/ha) was 0, the “Plant response rating, Watergrass, Early” value ([7]; 16 g ai/ha) was 0 and the “Barnyardgrass plant response rating” value ([8]; 32 g ai/ha) was 0. The “Barnyardgrass plant response rating” value ([8]; 125 g ai/ha) was 0, the “Barnyardgrass plant response rating” value ([8]; 250 g ai/ha) was 35 and the “Plant response rating, Barnyardgrass” value ([8]; 16 g ai/ha) was 0. For the same compound, the “Redstem plant response rating” value ([9]; 32 g ai/ha) was 0, the “Redstem plant response rating” value ([9]; 64 g ai/ha) was 0 and the “Redstem plant response rating” value ([9]; 125 g ai/ha) was 40. For the same compound, the “Redstem plant response rating” value ([9]; 250 g ai/ha) was 100, the “Plant response rating, Redstem” value ([9]; 16 g ai/ha) was 0 and the “Sprangletop, Brdd. plant response rating” value ([10]; 32 g ai/ha) was 0. For the same compound, the “Sprangletop, Brdd. plant response rating” value ([10]; 64 g ai/ha) was 0, the “Sprangletop, Brdd. plant response rating” value ([10]; 125 g ai/ha) was 0 and the “Sprangletop, Brdd. plant response rating” value ([10]; 250 g ai/ha) was 0. For the same compound, the “Plant response rating, Sprangletop, Brdd.” value ([10]; 16 g ai/ha) was 0, the “Sedge, Umbrella plant response rating” value ([11]; 32 g ai/ha) was 0 and the “Sedge, Umbrella plant response rating” value ([11]; 64 g ai/ha) was 0. For the same compound, the “Sedge, Umbrella plant response rating” value ([11]; 125 g ai/ha) was 0, the “Sedge, Umbrella plant response rating” value ([11]; 250 g ai/ha) was 0 and the “Plant response rating, Sedge, Umbrella” value ([11]; 16 g ai/ha) was 0. For the same compound, the “Plant response rating, Crabgrass” value [12, 18] was 0, the “Plant response rating, Crabgrass” value [12, 19] was 0 and the “Plant response rating, Crabgrass” value [12, 20] was 0. The “Plant response rating, Crabgrass” value [12, 21] was 15, the “Plant response rating, Morningglory” value [13, 18] was 20 and the “Plant response rating, Morningglory” value [13, 19] was 30. For the same compound, the “Plant response rating, Morningglory” value [13, 20] was 0, the “Plant response rating, Morningglory” value [13, 21] was 0 and the “Plant response rating, Pigweed” value [14, 18] was 50. The “Plant response rating, Pigweed” value [14, 19] was 65, the “Plant response rating, Pigweed” value [14, 20] was 0 and the “Plant response rating, Pigweed” value [14, 21] was 10. For the same compound, the “Plant response rating, Velvetleaf” value [15, 18] was 50, the “Plant response rating, Velvetleaf” value [15, 19] was 75 and the “Plant response rating, Velvetleaf” value [15, 20] was 0. The “Plant response rating, Velvetleaf” value [15, 21] was 35, the “Plant response rating, Barnyardgrass” value [16, 18] was 0 and the “Plant response rating, Barnyardgrass” value [16, 19] was 0. For the same compound, the “Plant response rating, Barnyardgrass” value [16, 20] was 0, the “Plant response rating, Barnyardgrass” value [16, 21] was 0 and the “Plant response rating, Foxtail, Giant” value [17, 18] was 0. The “Plant response rating, Foxtail, Giant” value [17, 19] was 0, the “Plant response rating, Foxtail, Giant” value [17, 20] was 0 and the “Plant response rating, Foxtail, Giant” value [17, 21] was 0.
